# Test results from US20160046656A1, “NOVEL PHYTOSPHINGOSINE-1-PHOSPHATE DERIVATIVE, PREPARATION METHOD THEREFOR, AND COMPOSITION FOR PREVENTING AND TREATING HAIR LOSS OR FOR GROWING HAIR COMPRISING SAME” (PHYTOS CO., LTD., priority 2013, published 2016).
# Key:
# C3H mice = test: Hair growth test using C3H mice; format: in vivo, mouse; details: for effects on hair growth compared to positive control group: 0.01 weight % solution once a day vs 3% minoxidil preparation (Mynoxyl)
# Method: A 6-week C3H mouse was purchased, and the hair on a dorsal part of the mouse was partially removed. Then, hair removal cream was applied to the dorsal part to completely remove the existing hair. A mouse of which the hair was not completely removed was excluded from the test. After finishing the hair removal, 5 mice were randomly bred per cage, and a total of 5 cages were used.
# The mice were left one day or so after finishing depilation, and a test compound, which was prepared by dissolving O-C-P1P of Example 4 and N-C-P1P of Example 5 in a mixed solution of ethanol and ethoxydiglycol (9:1, v/v) to a concentration of 0.01 weight %, was applied once a day to the area from which the hair was removed. A negative control group was prepared by applying a mixed solution of ethanol and ethoxydiglycol without using the test compound, and a positive control group was 3% minoxidil preparation (Mynoxyl, Hyundai Pharm). After applying samples to the area from which the hair was removed, images of the area captured at the 14th and 18th days are shown in FIG. 3. […]
# human fibroblasts = test: Cell proliferation by MTT assay; format: cell-based; details: for Cell Viability (%): MTT, 0 = 100; for cell proliferation, result in words: summary of Table 4
# Method: (§1) To measure anti-wrinkle effects of N-C-P1P and O-C-P1P, effects of human fibroblasts on cell proliferation were measured via an MTT (3-[4,5-dimethylthiazol-2-yl]-2,5-diphenyltetrazolium bromide) assay. To observe collagen synthesis, procollagent type I, which is produced in human fibroblasts (e.g., dermal cells), were measured.
# To measure cell proliferation, human fibroblasts were cultured for 24 hours in a Dulbecco's modified eagle medium (DMEM) medium supplemented with 10% FBS and 100 unit/mL of penicillin/streptomycin. The culture circumstances comprising culturing in a 5% CO2 incubator maintained at a temperature of 37° c. Then, after removing the medium therefrom, N-C-P1P and O-C-P1P were added thereto at different concentrations. The MTT assay was performed to measure effects of N-C-P1P and O-C-P1P on cell proliferation, and the results are summarized in Table 4.
# procollagen type I = test: Collagen synthesis, procollagen type I C-peptide EIA kit; format: cell-based; details: human fibroblasts; for Collagen synthesis (%): 24 hours, serum free medium, 0 = 100; for synthesis of collagen, result in words: summary of Table 5
# Method: as §1
# To measure collagen synthesis, the human fibroblasts (e.g., dermal cells) were cultured in the same conditions as above for 24 hours. After removing the medium therefrom, a new serum free medium was substituted. […] The culture medium was used to measure amounts of synthesized collagen by using a procollagen type I C-peptide EIA kit, and the results measured therefrom are shown in Table 5 below.
# [1] = 0.01 weight % in ethanol/ethoxydiglycol (9:1, v/v), applied once a day to depilated area, images at 14th and 18th days, FIG. 3
SMILES,effects on hair growth compared to negative control group (C3H mice; [1]),effects on hair growth compared to positive control group (C3H mice; FIG. 3),Cell Viability (%) (human fibroblasts; concentration 0.002%),Cell Viability (%) (human fibroblasts; concentration 0.004%),Cell Viability (%) (human fibroblasts; concentration 0.008%),Cell Viability (%) (human fibroblasts; concentration 0.016%),"cell proliferation, result in words (human fibroblasts)",Collagen synthesis (%) (procollagen type I; concentration 0.1 μM),Collagen synthesis (%) (procollagen type I; concentration 1 μM),"synthesis of collagen, result in words (procollagen type I)","effects on hair growth compared to negative control group (C3H mice; 0.005, 0.01 and 0.02 weight % solutions, images at 13th and 17th days, FIG. 5)","difference in effects on hair growth among concentrations (C3H mice; 0.005 weight %, 0.01 weight % and 0.02 weight %, FIG. 5)","effects on hair growth compared to negative control group (C3H mice; liposomes containing O-C-P1P of Examples 6 and 7, once a day for 3 weeks, FIG. 4)","concentration giving the same effects on hair growth, times as low as the concentration of minoxidil (C3H mice; vs 3% minoxidil preparation)"
"CCCCCCCCCCCCCC[C@@H](O)[C@@H](O)[C@@H]1COP(=O)(O)N1 [N-C-P1P, N-cyclic phytospingosine-1-phosphate]",significantly better,quite less,120,110,110,125,promoting cell proliferation,110,125,promoting synthesis of collagen,–,–,–,–
"CCCCCCCCCCCCCC[C@@H](O)[C@H]1OP(=O)(O)OC[C@@H]1N [O-C-P1P, O-cyclic phytospingosine-1-phosphate]",rapid growth of hair,effects on faster hair growth were shown better,128,135,143,160,promoting cell proliferation,120,140,promoting synthesis of collagen,significant effects on hair growth,no significant different,significant effects on hair growth,about 300 times
